Among the data in ChEMBL document CHEMBL1146693, “Design and SAR of thienopyrimidine and thienopyridine inhibitors of VEGFR-2 kinase activity” (Bioorg Med Chem Lett, 2004) are IC50 values, retold here.

Several values for one entry are separate records, joined by “and”; a condition that tells them apart may be missing. Equal entries are not always repeated. A value given as a limit tells only on which side of the number the result lay.

Chain of Epidermal growth factor receptor (P00533 whole entry): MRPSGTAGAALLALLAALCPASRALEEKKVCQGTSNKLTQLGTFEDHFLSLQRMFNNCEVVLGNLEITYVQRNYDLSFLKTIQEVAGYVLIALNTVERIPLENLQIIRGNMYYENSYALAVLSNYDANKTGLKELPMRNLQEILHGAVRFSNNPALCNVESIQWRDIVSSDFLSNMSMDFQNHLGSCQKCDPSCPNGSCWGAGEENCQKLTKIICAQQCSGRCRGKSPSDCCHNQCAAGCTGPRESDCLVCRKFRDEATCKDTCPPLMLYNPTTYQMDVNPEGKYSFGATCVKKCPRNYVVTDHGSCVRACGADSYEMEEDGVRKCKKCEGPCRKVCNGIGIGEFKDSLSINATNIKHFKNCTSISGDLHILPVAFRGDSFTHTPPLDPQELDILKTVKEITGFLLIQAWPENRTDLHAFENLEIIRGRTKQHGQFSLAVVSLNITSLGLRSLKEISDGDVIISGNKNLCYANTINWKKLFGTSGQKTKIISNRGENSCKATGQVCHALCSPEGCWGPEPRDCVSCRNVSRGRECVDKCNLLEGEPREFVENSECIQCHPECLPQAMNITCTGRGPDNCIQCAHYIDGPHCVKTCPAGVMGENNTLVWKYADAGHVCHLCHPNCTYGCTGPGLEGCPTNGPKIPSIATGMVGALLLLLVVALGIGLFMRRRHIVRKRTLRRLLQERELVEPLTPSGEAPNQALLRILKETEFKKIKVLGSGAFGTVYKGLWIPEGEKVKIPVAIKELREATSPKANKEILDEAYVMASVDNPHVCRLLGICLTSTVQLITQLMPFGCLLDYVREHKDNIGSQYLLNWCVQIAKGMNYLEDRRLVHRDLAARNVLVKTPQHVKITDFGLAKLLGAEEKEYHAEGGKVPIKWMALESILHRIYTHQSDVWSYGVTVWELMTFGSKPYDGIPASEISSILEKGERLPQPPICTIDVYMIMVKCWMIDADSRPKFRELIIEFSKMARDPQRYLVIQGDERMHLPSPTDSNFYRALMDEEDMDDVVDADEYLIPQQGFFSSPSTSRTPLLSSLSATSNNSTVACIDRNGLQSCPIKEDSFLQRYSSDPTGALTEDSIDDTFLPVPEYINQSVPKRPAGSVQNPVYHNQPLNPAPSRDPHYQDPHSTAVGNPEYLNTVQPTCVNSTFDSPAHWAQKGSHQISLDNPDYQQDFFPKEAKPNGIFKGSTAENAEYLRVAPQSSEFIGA

This test has as its target Epidermal growth factor receptor (Homo sapiens, UniProt P00533). The experiment in a line: Inhibitory activity against epidermal growth factor receptor.
For `c1ccc(-c2cc3ncnc(Nc4ccc5[nH]ncc5c4)c3s2)cc1`, the half-maximal inhibitory concentration (IC50) is 1600 nM.
Then `Cc1cc2cc(Nc3ccnc4cc(-c5ccc(CN(C)CCO)cc5)sc34)ccc2[nH]1`, with 140 nM; and `c1ccc(NCCN(c2cc3ncnc(Nc4ccc5[nH]ccc5c4)c3s2)n2cccc2)cc1`, with 1 nM.
`Cc1c[nH]c2ccc(Nc3ncnc4cc(-c5ccccc5)sc34)cc12` displayed an IC50 of 5 nM.
Then `CC(C)(CO)NCc1ccc(-c2cc3ncnc(Nc4ccc5[nH]ccc5c4)c3s2)cc1`, with 1 nM and 8 nM.
Then `NCc1ccc(-c2cc3ncnc(Nc4ccc5[nH]ccc5c4)c3s2)cc1`, with 4 nM.
The figure for `CC(=O)NCCNCc1ccc(-c2cc3nccc(Nc4ccc5[nH]ccc5c4)c3s2)cc1` is 2 nM; for `CN(CCO)Cc1ccc(-c2cc3nccc(Nc4ccc5[nH]ccc5c4)c3s2)cc1` it is 3 nM; for `c1cc(Nc2ccc3[nH]ccc3c2)c2sc(-c3ccc(CNCCN4CCNCC4)cc3)cc2n1` it is 3 nM.
Turning to `c1ccc(CCCN(c2cc3ncnc(Nc4ccc5[nH]ccc5c4)c3s2)n2ccnc2)cc1`, the half-inhibitory concentration (IC50) was 5 nM and 1 nM.
Then `Cc1cc2cc(Nc3ccnc4cc(-c5ccc(CNCCO)cc5)sc34)ccc2[nH]1`, with 1000 nM; and `c1nc(Nc2ccc3[nH]ccc3c2)c2sccc2n1`, with 600 nM.
For `NC(=O)c1ccc(Nc2ncnc3cc(-c4ccccc4)sc23)cc1`, the 50% inhibitory concentration (IC50) is > 1000 nM.
The figure for `Cc1cc2cc(Nc3ccnc4cc(-c5ccc(CNCCOCCO)cc5)sc34)ccc2[nH]1` is 657 nM.
Then `c1csc(-c2cc3nccc(Nc4ccc5[nH]ccc5c4)c3s2)c1`, with 1 nM; and `OCCCNCc1ccc(-c2cc3nccc(Nc4ccc5[nH]ccc5c4)c3s2)cc1`, with 9 nM.
Then `OCc1ccc(-c2cc3ncnc(Nc4ccc5[nH]ccc5c4)c3s2)cc1`, with 1 nM; and `Cc1cc2cc(Nc3ccnc4cc(-c5ccc(CNCCCO)cc5)sc34)ccc2[nH]1`, with 500 nM; and `Cc1cc2cc(Nc3ncnc4cc(-c5ccccc5)sc34)ccc2[nH]1`, with 100 nM.
`c1cc(Nc2ccc3[nH]ccc3c2)c2sc(-c3ccc(CN4CCOCC4)cc3)cc2n1` showed an IC50 of 30 nM.
Then `Cc1cc2cc(Nc3ccnc4cc(-c5ccc(CN6CCOCC6)cc5)sc34)ccc2[nH]1`, with 1250 nM; and `OCCNCc1ccc(-c2cc3nccc(Nc4ccc5[nH]ccc5c4)c3s2)cc1`, with 2 nM; and `NC(=O)C1CCN(Cc2ccc(-c3cc4nccc(Nc5ccc6[nH]ccc6c5)c4s3)cc2)CC1`, with 1 nM.
Then `CC(=O)NCCNCc1ccc(-c2cc3ncnc(Nc4ccc5[nH]ccc5c4)c3s2)cc1`, with 5 nM; and `NC(=O)C1CCN(Cc2ccc(-c3cc4ncnc(Nc5ccc6[nH]ccc6c5)c4s3)cc2)CC1`, with 7 nM.

By IC50 is commonly meant the point on the concentration scale where inhibition reaches its midpoint. A lower IC50 goes with inhibition by little substance.
